Results published in patent US9907859B2 (priority 2010, dated 2018).
Where “and” joins values, the source holds several entries; their conditions need not be identical. Equal entries are not always repeated. Where two headings read alike, the source gives them in different places.

How the values were obtained:
variola viruses = settings: in vitro, read-out: 50% effective concentration [EC50], inhibition of virus replication; cited from earlier work
[1] = female, CD-1, mouse, in vivo; for Cmax: iv
[2] = New Zealand White, rabbit, in vivo
CV = settings: in vivo; cited from earlier work
monkeypox = settings: in vitro, read-out: 50% effective concentration [EC50], inhibition of virus replication; cited from earlier work
vaccinia virus (VV) = settings: in vitro, read-out: 50% effective concentration [EC50], inhibition of virus replication; cited from earlier work
[3] = in vivo
[4] = both, cynomolgus monkey, in vivo; for AUCINF—obs / Cmax / CL / T1/2 / Tmax: iv
in vivo [5] = settings: mouse, po
ECTV = settings: in vivo; cited from earlier work
VV = settings: in vivo; cited from earlier work
in vivo [6] = settings: New Zealand White, rabbit, iv; for clearance: CL
[7] = both, New Zealand White, rabbit, in vivo, po, 100 mg/kg
ectromelia virus (ECTV) = settings: read-out: 50% effective concentration [EC50], inhibition of virus replication; cited from earlier work
[8] = cynomolgus monkey, in vivo

O=C(NN1C(=O)C2C3C=CC(C4CC34)C2C1=O)c1ccc(C(F)(F)F)cc1 (stereo not drawn) [ST-246, 4-trifluoromethyl-N-(3,3a,4,4a,5,5a,6,6a-octahydro-1,3-dioxo-4,6-ethenocycloprop[f]isoindol-2(1H)-yl)-benzamide]
EC50 (variola viruses): ≤ 70 nM
average plasma concentration at the end of infusion ([1]; 75 mg/kg): 238, 333 ng/mL
Cmax ([1]; 10 mg/kg): 64000 ng/mL
Cmax ([1]; 30 mg/kg): 147333 ng/mL
Cmax ([1]; 75 mg/kg): 238000 ng/mL
AUC0-24 hr ([2]; both, iv, 3 mg/kg): 3390 ± 1070 ng·h/mL
CL ([2]; both, iv, 3 mg/kg): 16.1 ± 6.05 mL/min/kg
mean maximum plasma concentration ([2]; both, iv, 30 mg/kg): 38.5 µg/mL
peak plasma concentration ([2]; female, 3 mg/kg): 4345 ng/mL
peak plasma concentration ([2]; male, 3 mg/kg): 7225 ng/mL
preventing or reducing mortality (CV): highly effective in preventing or reducing mortality
toxicity in animal model (CV): nontoxic
Solubility of ST-246 (4 ° C.): 5.47 and 6.05
Solubility of ST-246 (25 ° C.): 9.21 and 10.59
Solubility of ST-246 (40 ° C.): 12.99 and 12.23
Solubility of ST-246 (60 ° C.): 17.41 and 16.21
EC50 (monkeypox): ≤ 70 nM
EC50 (vaccinia virus (VV)): ≤ 70 nM
time to recovery ([3]; female, CD-1, mouse, iv, 75 mg/kg): 2 to 3 h
tolerability ([3]; mouse): well-tolerated
toxicity after bolus IV injection ([3]; mouse, iv, 34 mg/kg): some dose-related toxicity and mortality
clinical signs ([3]; mouse, iv, 75 mg/kg): unsteady gait
clinical signs ([3]; mouse, iv, 100 mg/kg): clinical signs of labored breathing and lethargy
Cmax higher for 4 hour vs 6 hour infusions [4]: approximately 50%
exposure higher for 4 hour vs 6 hour infusions [4]: approximately 20%
terminal elimination half-life [4]: 9.1 h
AUCINF—obs ([4]; 1 mg/kg): 1940 ± 460 ng·h/mL
Cmax ([4]; 1 mg/kg): 384 ± 112 ng/mL
AUCINF—obs ([4]; 3 mg/kg): 5830 ± 870 ng·h/mL
Cmax ([4]; 3 mg/kg): 1050 ± 190 ng/mL
CL ([4]; 10 mg/kg): 7.15 ± 1.23 mL/min/kg
T1/2 ([4]; 10 mg/kg): 8.9 ± 2.5 h
AUCINF—obs ([4]; 15 mg/kg): 48700 ± 7500 ng·h/mL
Cmax ([4]; 15 mg/kg): 9080 ± 950 ng/mL
AUCINF—obs ([4]; 20 mg/kg): 47900 ± 6100 ng·h/mL
CL ([4]; 20 mg/kg): 7.22 ± 0.883 mL/min/kg
Cmax ([4]; 20 mg/kg): 7480 ± 400 ng/mL
Tmax ([4]; 20 mg/kg): 6 h
AUCINF—obs ([4]; 30 mg/kg): 87200 ± 14600 ng·h/mL
CL ([4]; 30 mg/kg): 6.03 ± 1.02 mL/min/kg
Cmax ([4]; 30 mg/kg): 13900 ± 1300 ng/mL
T1/2 ([4]; 30 mg/kg): 6.9 ± 0.8 h
Tmax ([4]; 30 mg/kg): 6 h
half-life (in vivo [5]; female, BALB/c): 2.2 to 4.5 h
CL/F (in vivo [5]; female, BALB/c, 30 mg/kg): 1.7 mL/min/kg
half-life (in vivo [5]; female, BALB/c, 30 mg/kg): 2.4 h
AUC(0-t) (in vivo [5]; female, BALB/c, 30 mg/kg, AUC0-24): 292000 ng·h/mL
AUC(0-t) (in vivo [5]; female, BALB/c, 30 mg/kg, AUC0-24 hr): 292000 ng·h/mL
Cmax (in vivo [5]; female, BALB/c, 30 mg/kg): 37500 ng/mL
CL/F (in vivo [5]; female, BALB/c, 100 mg/kg): 3.65 mL/min/kg
half-life (in vivo [5]; female, BALB/c, 100 mg/kg): 2.2 h
AUC(0-t) (in vivo [5]; female, BALB/c, 100 mg/kg, AUC0-24 hr): 456000 ng·h/mL
Cmax (in vivo [5]; female, BALB/c, 100 mg/kg): 43800 ng/mL
CL/F (in vivo [5]; female, BALB/c, 300 mg/kg): 7.3 mL/min/kg
half-life (in vivo [5]; female, BALB/c, 300 mg/kg): 4.1 h
AUC(0-t) (in vivo [5]; female, BALB/c, 300 mg/kg, AUC0-24 hr): 669000 ng·h/mL
Cmax (in vivo [5]; female, BALB/c, 300 mg/kg): 64000 ng/mL
CL/F (in vivo [5]; female, BALB/c, 1000 mg/kg): 18.9 mL/min/kg
half-life (in vivo [5]; female, BALB/c, 1000 mg/kg): 4.5 h
AUC(0-t) (in vivo [5]; female, BALB/c, 1000 mg/kg, AUC0-24 hr): 852000 ng·h/mL
Cmax (in vivo [5]; female, BALB/c, 1000 mg/kg): 66000 ng/mL
AUC(0-t) (in vivo [5]; female, 100 mg/kg, AUC0-24): 456000 ng·h/mL
AUC(0-t) (in vivo [5]; female, 300 mg/kg, AUC0-24): 669000 ng·h/mL
Cmax (in vivo [5]; female, 300 mg/kg): 64000 ng/mL
AUC(0-t) (in vivo [5]; female, 500 mg/kg, AUC0-24): 515000 ng·h/mL
Cmax (in vivo [5]; female, 500 mg/kg): 56600 ng/mL
AUC(0-t) (in vivo [5]; female, 600 mg/kg, AUC0-24): 854000 ng·h/mL
Cmax (in vivo [5]; female, 600 mg/kg): 95300 ng/mL
Cmax (in vivo [5]; female, 1000 mg/kg): 66300 ng/mL
AUC(0-t) (in vivo [5]; female, 2000 mg/kg, AUC0-24): 607000 ng·h/mL
Cmax (in vivo [5]; female, 2000 mg/kg): 69900 ng/mL
AUC(0-t) (in vivo [5]; male, BALB/c, 30 mg/kg, AUC0-24): 241000 ng·h/mL
Cmax (in vivo [5]; male, BALB/c, 30 mg/kg): 30400 ng/mL
Cmax (in vivo [5]; male, BALB/c, 100 mg/kg): 38400 ng/mL
AUC(0-t) (in vivo [5]; male, 100 mg/kg, AUC0-24): 343000 ng·h/mL
AUC(0-t) (in vivo [5]; male, 300 mg/kg, AUC0-24): 484000 ng·h/mL
Cmax (in vivo [5]; male, 300 mg/kg): 48400 ng/mL
AUC(0-t) (in vivo [5]; male, 500 mg/kg, AUC0-24): 413000 ng·h/mL
Cmax (in vivo [5]; male, 500 mg/kg): 36600 ng/mL
AUC(0-t) (in vivo [5]; male, 600 mg/kg, AUC0-24): 765000 ng·h/mL
Cmax (in vivo [5]; male, 600 mg/kg): 82800 ng/mL
Cmax (in vivo [5]; male, 1000 mg/kg): 61100 ng/mL
AUC(0-t) (in vivo [5]; male, 2000 mg/kg, AUC0-24): 508000 ng·h/mL
Cmax (in vivo [5]; male, 2000 mg/kg): 50900 ng/mL
preventing or reducing mortality (ECTV): highly effective in preventing or reducing mortality
toxicity in animal model (ECTV): nontoxic
preventing or reducing mortality (VV): highly effective in preventing or reducing mortality
toxicity in animal model (VV): nontoxic
AUC(0-t) (in vivo [6]; 1 mg/kg, AUC0-24 hr): 1430 ± 400 ng·h/mL
clearance (in vivo [6]; 1 mg/kg): 27.7 mL/min/kg
Cmax (in vivo [6]; 1 mg/kg, Cmax): 1670 ± 2270 ng/mL
half-life (in vivo [6]; 1 mg/kg, T1/2): 0.9 ± 0.2 h
AUC(0-t) (in vivo [6]; both, 3 mg/kg, AUC0-24): 2380 ng·h/mL
AUC(0-t) (in vivo [6]; both, 3 mg/kg, AUC0-24 hr): 2380 ± 930 ng·h/mL
clearance (in vivo [6]; both, 3 mg/kg): 22.3 mL/min/kg
Cmax (in vivo [6]; both, 3 mg/kg, Cmax): 3030 ± 370 ng/mL
Cmax (in vivo [6]; both, 3 mg/kg, mean Cmax): 5790 ng/mL
AUC(0-t) (in vivo [6]; both, 30 mg/kg, AUC0-24 hr): 13300 ± 700 ng·h/mL
clearance (in vivo [6]; both, 30 mg/kg): 37.1 mL/min/kg
Cmax (in vivo [6]; both, 30 mg/kg, Cmax): 38500 ± 3700 ng/mL
half-life (in vivo [6]; both, 30 mg/kg, T1/2): 12.2 ± 5.8 h
AUC(0-t) (in vivo [6]; both, 60 mg/kg, AUC0-24 hr): 61800 ± 8700 ng·h/mL
clearance (in vivo [6]; both, 60 mg/kg): 16.4 mL/min/kg
Cmax (in vivo [6]; both, 60 mg/kg, Cmax): 94100 ± 11100 ng/mL
half-life (in vivo [6]; both, 60 mg/kg, T1/2): 5.2 ± 0.8 h
Cmax (in vivo [6]; both, 60 mg/kg, mean Cmax): 94100 ng/mL
half-life (in vivo [6]; both, elimination half-lives): 1 to 12.2 h
AUC(0-t) (in vivo [6]; female, 1 mg/kg, AUC0-24): 1150 ng·h/mL
Cmax (in vivo [6]; female, 1 mg/kg, Cmax): 679 ng/mL
half-life (in vivo [6]; female, 1 mg/kg, T1/2): 0.69 h
AUC(0-t) (in vivo [6]; female, 3 mg/kg, AUC0-24): 3210 ng·h/mL
Cmax (in vivo [6]; female, 3 mg/kg, Cmax): 3340 ng/mL
AUC(0-t) (in vivo [6]; female, 30 mg/kg, AUC0-24): 14900 ng·h/mL
Cmax (in vivo [6]; female, 30 mg/kg, Cmax): 37000 ng/mL
half-life (in vivo [6]; female, 30 mg/kg, T1/2): 16.3 h
AUC(0-t) (in vivo [6]; female, 60 mg/kg, AUC0-24): 60100 ng·h/mL
Cmax (in vivo [6]; female, 60 mg/kg, Cmax): 88200 ng/mL
half-life (in vivo [6]; female, 60 mg/kg, T1/2): 4.6 h
AUC(0-t) (in vivo [6]; male, 1 mg/kg, AUC0-24): 1710 ng·h/mL
Cmax (in vivo [6]; male, 1 mg/kg, Cmax): 769 ng/mL
half-life (in vivo [6]; male, 1 mg/kg, T1/2): 1.1 h
AUC(0-t) (in vivo [6]; male, 3 mg/kg, AUC0-24): 1870 ng·h/mL
half-life (in vivo [6]; male, 3 mg/kg, T1/2): 3.2 h
AUC(0-t) (in vivo [6]; male, 30 mg/kg, AUC0-24): 16200 ng·h/mL
Cmax (in vivo [6]; male, 30 mg/kg, Cmax): 40000 ng/mL
half-life (in vivo [6]; male, 30 mg/kg, T1/2): 8.1 h
AUC(0-t) (in vivo [6]; male, 60 mg/kg, AUC0-24): 72300 ng·h/mL
Cmax (in vivo [6]; male, 60 mg/kg, Cmax): 99800 ng/mL
half-life (in vivo [6]; male, 60 mg/kg, T1/2): 5.7 h
AUC0-24 hr [7]: 19800 ± 16600 ng·h/mL
EC50 (ectromelia virus (ECTV)): ≤ 70 nM
onset of tremors after end of infusion ([8]; both, 30 mg/kg): ≤ 13 min
resolution of tremors after end of infusion ([8]; both, 30 mg/kg): approximately 2 hours
clinical signs [8]: no clinical signs were observed
clinical signs ([8]; 20 mg/kg): Tremors were not observed
